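How tested: cells in 96-well plates exposed to compound for 48 hours at five concentrations. Here, GI50 denotes the concentration required for 50% inhibition of growth.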 Calls of active or inactive are those of the source. No stated cut-off is given here; in the data, active = GI50 up to about 1.1 µM and inactive = higher.
Key:
Test in all cases: growth of human tumour cells (NCI), 48 h
SF-539 = test system: SF-539
HOP-92 = test system: HOP-92
NCI-H522 = test system: NCI-H522
TK-10 = test system: TK-10
SW-620 = test system: SW-620
DU-145 = test system: DU-145
OVCAR-5 = test system: OVCAR-5
COLO 205 = test system: COLO 205
SK-MEL-5 = test system: SK-MEL-5
HL-60 = test system: HL-60
SN12C = test system: SN12C
HOP-62 = test system: HOP-62
UACC-62 = test system: UACC-62
SF-268 = test system: SF-268
KM12 = test system: KM12
MDA-MB-231 = test system: MDA-MB-231
MDA-MB-435 = test system: MDA-MB-435
MCF7 = test system: MCF7
BT-549 = test system: BT-549

Row | Compound | GI50 (SF-539) | GI50 (HOP-92) | GI50 (NCI-H522) | GI50 (TK-10) | GI50 (SW-620) | GI50 (DU-145) | GI50 (OVCAR-5) | GI50 (COLO 205) | GI50 (SK-MEL-5) | GI50 (HL-60) | GI50 (SN12C) | GI50 (HOP-62) | GI50 (UACC-62) | GI50 (SF-268) | GI50 (KM12) | GI50 (MDA-MB-231) | GI50 (MDA-MB-435) | GI50 (MCF7) | GI50 (BT-549)
1 | CC(=O)OCCn1cnc2nc(Nc3ccccc3)nc(Cl)c21 | > 100 µM (inactive) | 13.6 µM (inactive) | 84.9 µM (inactive) | > 100 µM (inactive) | > 100 µM (inactive) | > 100 µM (inactive) | > 100 µM (inactive) | 47.5 µM (inactive) | 60.8 µM (inactive) | 47.8 µM (inactive) | > 100 µM (inactive) | > 100 µM (inactive) | 44.1 µM (inactive) | > 100 µM (inactive) | 29.2 µM (inactive) | 38.1 µM (inactive) | 25.1 µM (inactive) | 46.8 µM (inactive) | 
2 | COC(=O)CC1(O)C(/C=C/c2ccccc2)C(C(=O)OC)C(=O)C(C(=O)OC)C1C(=O)OC (configuration not stated) | > 100 µM (inactive) | > 100 µM (inactive) | 49.5 µM (inactive) | > 100 µM (inactive) | > 100 µM (inactive) | > 100 µM (inactive) | > 100 µM (inactive) | > 100 µM (inactive) | > 100 µM (inactive) | > 100 µM (inactive) | > 100 µM (inactive) | > 100 µM (inactive) | 81.1 µM (inactive) | > 100 µM (inactive) | > 100 µM (inactive) | > 100 µM (inactive) | > 100 µM (inactive) | 96.8 µM (inactive) | 
3 | Cc1n2nc(N)sc2n[n+]1Cc1ccccc1 | > 100 µM (inactive) |  | > 100 µM (inactive) | > 100 µM (inactive) | > 100 µM (inactive) | > 100 µM (inactive) | > 100 µM (inactive) | 21.4 µM (inactive) | 49.5 µM (inactive) |  | > 100 µM (inactive) | 72.6 µM (inactive) | 47.4 µM (inactive) | 48.8 µM (inactive) | > 100 µM (inactive) |  | > 100 µM (inactive) | > 100 µM (inactive) | 74.6 µM (inactive)
4 | CCOC(=O)C(=O)Nc1ccc([N+](=O)[O-])cc1C#N | > 100 µM (inactive) | > 100 µM (inactive) | > 100 µM (inactive) | > 100 µM (inactive) | > 100 µM (inactive) |  | > 100 µM (inactive) |  | > 100 µM (inactive) | > 100 µM (inactive) | > 100 µM (inactive) | > 100 µM (inactive) | > 100 µM (inactive) | > 100 µM (inactive) | > 100 µM (inactive) |  |  |  | 
5 | CC(C)N/C(=N\C#N)NS(=O)(=O)c1cnccc1Nc1ccc(Cl)cc1 |  |  | > 100 µM (inactive) | > 100 µM (inactive) | > 100 µM (inactive) | > 100 µM (inactive) | > 100 µM (inactive) | > 100 µM (inactive) | > 100 µM (inactive) |  | > 100 µM (inactive) | > 100 µM (inactive) | > 100 µM (inactive) | > 100 µM (inactive) | > 100 µM (inactive) | > 100 µM (inactive) | > 100 µM (inactive) | > 100 µM (inactive) | > 100 µM (inactive)
6 | N#Cc1c(N2CCN(c3ccc([N+](=O)[O-])cc3)CC2)[n+]([O-])c2ccc(-c3ccc([N+](=O)[O-])cc3)cc2[n+]1[O-] | 38.7 µM (inactive) |  |  | > 56.8 µM (inactive) | 35.2 µM (inactive) | 21.2 µM (inactive) | 30.7 µM (inactive) | 17.9 µM (inactive) | 4.18 µM (inactive) |  |  | 1.82 µM (inactive) | 18 µM (inactive) | > 100 µM (inactive) | > 83.6 µM (inactive) | 22.5 µM (inactive) | 39.6 µM (inactive) | > 100 µM (inactive) | > 100 µM (inactive)
7 | COc1ccc(P2(=S)OC(C)(C)C(C)(C)O2)cc1 | > 100 µM (inactive) | > 100 µM (inactive) | > 100 µM (inactive) | > 100 µM (inactive) | > 100 µM (inactive) | > 100 µM (inactive) | > 100 µM (inactive) |  | > 100 µM (inactive) | > 100 µM (inactive) | > 100 µM (inactive) | > 100 µM (inactive) | > 100 µM (inactive) |  | > 100 µM (inactive) | > 100 µM (inactive) | > 100 µM (inactive) | > 100 µM (inactive) | 
8 | CC(C)(C)OC(=O)NCCNC(=O)OCc1ccccc1 | > 100 µM (inactive) | > 100 µM (inactive) | > 100 µM (inactive) | > 100 µM (inactive) | > 100 µM (inactive) | > 100 µM (inactive) | > 100 µM (inactive) | > 100 µM (inactive) | 50.6 µM (inactive) |  | > 100 µM (inactive) | > 100 µM (inactive) | > 100 µM (inactive) | > 100 µM (inactive) | > 100 µM (inactive) |  | > 100 µM (inactive) | > 100 µM (inactive) | > 100 µM (inactive)
9 | N#Cc1c(-c2ccc(Cl)cc2)c(C#N)c(=O)n(NS(=O)(=O)c2ccccc2)c1O | 20.7 µM (inactive) | 19.3 µM (inactive) | 27.9 µM (inactive) | 39.1 µM (inactive) | 30.6 µM (inactive) |  | 31 µM (inactive) | 29.9 µM (inactive) | 17.1 µM (inactive) | 16.1 µM (inactive) | 13.6 µM (inactive) | 27 µM (inactive) | 15.1 µM (inactive) | 35.6 µM (inactive) | 23.7 µM (inactive) | 23.3 µM (inactive) | 34.3 µM (inactive) | 16.9 µM (inactive) | 13.4 µM (inactive)
10 | COc1cc(S(=O)(=O)Nc2ccc(-c3csc(N4C(=O)C(Cl)C4c4ccccc4O)n3)cc2)ccc1Cl (configuration not stated) | 30.5 µM (inactive) | 28 µM (inactive) | 1.51 µM (inactive) |  | 32.3 µM (inactive) | 14.3 µM (inactive) | 47.8 µM (inactive) | 23.9 µM (inactive) | 37.1 µM (inactive) | 21.8 µM (inactive) | 33.1 µM (inactive) | > 100 µM (inactive) | 17 µM (inactive) | 25.8 µM (inactive) | 33 µM (inactive) |  | 31.4 µM (inactive) | 21 µM (inactive) | 29 µM (inactive)
11 | Fc1ccccc1CN1COc2c(cc(Cl)c3cccnc23)C1 | 1.22 µM (inactive) | 3.61 µM (inactive) | 2.68 µM (inactive) | 3.09 µM (inactive) | 3.08 µM (inactive) | 2.62 µM (inactive) | 3.05 µM (inactive) | 14.2 µM (inactive) | 0.713 µM (active) | 0.265 µM (active) | 0.215 µM (active) | 1.16 µM (inactive) | 0.427 µM (active) | 2.62 µM (inactive) | 2.23 µM (inactive) | 0.422 µM (active) | 2.54 µM (inactive) | 3.33 µM (inactive) | 
12 | CS/C(=N\C#N)S/C=C/C(=O)c1ccc(Cl)cc1 | 20.8 µM (inactive) | 88.5 µM (inactive) | 18.3 µM (inactive) | 23.6 µM (inactive) | 15.6 µM (inactive) | 25.6 µM (inactive) | 39.4 µM (inactive) | 25.4 µM (inactive) | 15.9 µM (inactive) | 8.15 µM (inactive) | 26.2 µM (inactive) | 38.2 µM (inactive) | 22.9 µM (inactive) | 22.5 µM (inactive) | 45.7 µM (inactive) |  | 24.9 µM (inactive) | 26.4 µM (inactive) | 
13 | O=c1/c(=C\c2ccccc2)sc2n1C(c1ccccc1)C1(O)CCCCC1N=2 (configuration not stated) |  |  | > 100 µM (inactive) | > 100 µM (inactive) | > 100 µM (inactive) |  | > 100 µM (inactive) |  | > 100 µM (inactive) | 36 µM (inactive) | > 100 µM (inactive) | > 100 µM (inactive) | > 100 µM (inactive) | > 100 µM (inactive) |  | 95.7 µM (inactive) | > 100 µM (inactive) | 43.7 µM (inactive) | > 100 µM (inactive)
14 | NCc1ccc(C(=O)O)cc1 [AMINOMETHYLBENZOIC ACID] |  | > 100 µM (inactive) | > 100 µM (inactive) | > 100 µM (inactive) | > 100 µM (inactive) | > 100 µM (inactive) | > 100 µM (inactive) |  | > 100 µM (inactive) | > 100 µM (inactive) | > 100 µM (inactive) | > 100 µM (inactive) | > 100 µM (inactive) | > 100 µM (inactive) | > 100 µM (inactive) | > 100 µM (inactive) | > 100 µM (inactive) |  | > 100 µM (inactive)
15 | CC1C(c2cc(C(C)(C)C)c(O)c(C(C)(C)C)c2)c2cc3c(cc2OC1N1CCOCC1)OCO3 (configuration not stated) | 12.9 µM (inactive) |  | 21.2 µM (inactive) | 15.5 µM (inactive) | 42.2 µM (inactive) | 30.1 µM (inactive) | > 100 µM (inactive) | 71 µM (inactive) | 17.1 µM (inactive) |  | 33.8 µM (inactive) | 16.9 µM (inactive) | 26.4 µM (inactive) | 17.4 µM (inactive) | 43.9 µM (inactive) |  | 24 µM (inactive) | 21.2 µM (inactive) | 
16 | CCCNC(=S)N/N=C/c1cccc(C)n1 | 25.2 µM (inactive) | 49 µM (inactive) | 4.04 µM (inactive) | 65.8 µM (inactive) |  |  | 44.5 µM (inactive) | 3.94 µM (inactive) | 31.7 µM (inactive) | 25.9 µM (inactive) | 29.2 µM (inactive) | 25.6 µM (inactive) | 20.8 µM (inactive) |  | > 100 µM (inactive) | 33.7 µM (inactive) | 36.8 µM (inactive) | 41.2 µM (inactive) | 
17 | C=CC1(c2ccc3ccccc3c2)OCC(CC)(CC)CO1 | 14.3 µM (inactive) | 23.4 µM (inactive) | 24.5 µM (inactive) | 37.5 µM (inactive) | 14.9 µM (inactive) | 45.1 µM (inactive) | 18.8 µM (inactive) | 16.3 µM (inactive) | 18.5 µM (inactive) | 21.6 µM (inactive) | 21.7 µM (inactive) | 27.4 µM (inactive) | 24.8 µM (inactive) | 33.3 µM (inactive) | 20.8 µM (inactive) | 15.8 µM (inactive) | 22.7 µM (inactive) | 37.6 µM (inactive) | 

Source: ChEMBL document CHEMBL1201862, “PubChem BioAssay data set” (2004)
